Experimental findings from patent publication US20080119456A1, “Substituted Thiazoleacetic Acid as Crth2 Ligands” (priority 2004, published 2008) are described below.

For experiment [1], the target named is T1, human CRTH2-Rluc (Homo sapiens, UniProt Q9Y5Y4, V204A).
T1 construct: expressed in transfected cells
T1 sequence (Q9Y5Y4 1-395 V204A): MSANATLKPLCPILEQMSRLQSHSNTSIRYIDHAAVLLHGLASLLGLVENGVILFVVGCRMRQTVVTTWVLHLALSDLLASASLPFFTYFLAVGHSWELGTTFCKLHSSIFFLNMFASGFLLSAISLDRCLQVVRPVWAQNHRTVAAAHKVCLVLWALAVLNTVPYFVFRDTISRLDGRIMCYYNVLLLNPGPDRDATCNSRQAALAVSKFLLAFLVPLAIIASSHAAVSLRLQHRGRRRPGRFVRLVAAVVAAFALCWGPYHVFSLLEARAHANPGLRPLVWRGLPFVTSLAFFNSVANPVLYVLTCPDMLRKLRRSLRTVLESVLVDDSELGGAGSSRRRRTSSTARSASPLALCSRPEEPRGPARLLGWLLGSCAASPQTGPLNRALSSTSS
The experiment in a line: Functional antagonist BRET assay on HEK293 cells stably expressing CRTH2-Rluc and GFP2-β-arr2. To be noted: antagonist incubated 15 minutes before agonist, read-out: Antag. IC50. The class given is cell-based. The text has this: (§1) Generation/origin of the cDNA Constructs. The coding sequence of the human CRTH2 receptor (genbank accession no NM_004778) was amplified by PCR from a human hippocampus cDNA library and inserted into the pcDNA3.1(+) expression vector (invitrogen) via 5′ HindIII and 3′ EcoRI. To generate a CRTH2-Renilla luciferase (CRTH2-Rluc) fusion protein, the CRTH2 coding sequence without a STOP codon and Rluc were amplified, fused in frame by PCR and subcloned into the pcDNA3.1(+)Zeo expression vector (invitrogen). Human β-arrestin2 (β-arr2) N-terminally tagged with GFP^2 (βarr2-GFP^2) and Renilla luciferase were purchased from BioSignal Packard Inc, (Montreal, Canada). The sequence identity of the construct was verified by restriction endonuclease digests and sequencing in both directions on an ABI Prism (Applied Biosystems, Foster City, Calif.).
(§2) Cell Culture and Transfection. COS-7 cells were grown in Dulbecco's modified Eagle's medium (DMEM) 1885 supplemented with 10% fetal bovine serum, 100 units/ml penicillin, […] streptomycin, and kept at 37° C. in a 10% CO2 atmosphere. HEK293 cells were maintained in Minimum Essential medium (MEM) supplemented with 10% (v/v) heat inactivated fetal calf serum (HIFCS), 2 mM Glutamax™-I, 1% non essential amino acids (NEAA), 1% sodium pyruvate and 10 μg/ml gentamicin. For binding experiments, COS7 cells were transiently transfected with the CRTH2 receptor using a calcium phosphate-DNA coprecipitation method with the addition of chloroquine (as described by Hoist et al., 2001*). To perform the functional Bioluminescence Resonance Energy Transfer (BRET) assays, a HEK293 cell clone stably expressing βarr2-GFP^2 and CRTH2-Rluc was generated (CRTH2-HEK293 cells).
BRET assay. Functional BRET assays were performed on HEK293 cells stably expressing human CRTH2-Rluc and GFP^2-β-arr2. Prior to their use in the BRET assay cells were detached and re-suspended in D-PBS with 1000 mg/L L-Glucose at a density of 2×10^6 cells/mL. DeepBlueC™ was diluted to 50 μM in D-PBS with 1000 mg/L L-Glucose (light sensitive). 100 μL of cell suspension was transferred to wells in a 96-well microplate (white OptiPlate) and placed in the Mithras LB 940 instrument (BERTHOLD TECHNOLOGIES, Bad Wildbad, Germany). 12 μL/well agonist was then injected by injector 1 and 10 μL/well DeepBlueC™ was injected simultaneously by injector 2. Five seconds after the injections the light output from the well was measured sequentially at 400 nm and 515 nm, and the BRET signal (mBRET ratio) was calculated by the ratio of the fluorescence emitted by GFP^2-β-arr2 (515 nm) over the light emitted by the receptor-Rluc (400 nm). Antagonists were added before placing the microplates into the Mithras LB 940 and allowed to incubate for 15 minutes prior to the addition of agonist and DeepBlueC™. Compounds were dissolved in DMSO and the final DMSO concentration was kept constant at 1% in the assay.
(§3) Curve analysis was performed with the GraphPadPrism software 3.0 (Graphpad Prism Inc., San Diego, USA) and IC50 values were calculated as a measure of the antagonistic potencies.
Background: BRET reads energy transfer from a luciferase to a nearby fluorophore.

Experiment [2] concerns the target T2, human CRTH2 receptor (Homo sapiens, UniProt Q9Y5Y4, V204A).
T2 construct: expressed in transfected cells; host or cells: COS-7 cells, transient, pcDNA3.1(+)
T2 sequence (Q9Y5Y4 1-395 V204A): T1 sequence (Q9Y5Y4 1-395 V204A)
The experiment in a line: Receptor binding assay: [3H]PGD2 competition on whole COS-7 cells transfected with CRTH2. The conditions noted are these: 0.1 nM [3H]PGD2, whole cells, 3 h at 4° C.
Source text: as §1, §2
Binding assay. 24 h after transfection COS-7 cells were seeded into 96 well plates at a density of 30.000 cells/well. Competition binding experiments on whole cells were then performed about 18-24 h later using 0.1 nM [^3H]PGD2 (NEN, 172 Ci/mmol) in a binding buffer consisting of HBSS (GIBCO) and 10 mM HEPES. Competing ligands were diluted in DMSO which was kept constant at 1% (v/v) of the final incubation volume. Total and nonspecific binding were determined in the absence and presence of 10 μM PGD2. Binding reactions were routinely conducted for 3 h at 4° C. and terminated by 2 washes (100 μl each) with ice cold binding buffer. Radioactivity was determined by liquid scintillation counting in a TOPCOUNTER (Packard) following over night incubation in Microscint 20. Stable HEK293 cells were seeded at a density of 30.000 cells/well 18-24 h prior to the binding assay which was performed essentially as described for COS7 cells above. Determinations were made in duplicates.
as §3

SMILES strings stand for the structures.

For `O=C(O)Cc1sc(C(c2ccccc2)c2ccccc2)nc1-c1ccc(Cl)cc1` [Compound A1, [2-Benzhydryl-4-(4-chloro-phenyl)-thiazol-5-yl]-acetic acid], the half-maximal inhibitory concentration (IC50) in experiment [1] and in experiment [2] was less than 0.5 µM throughout.

As for `O=C(O)Cc1sc(C(c2ccccc2)c2ccccc2)nc1-c1ccc(F)cc1` [Compound A4, [2-Benzhydryl-4-(4-fluoro-phenyl)-thiazol-5-yl]-acetic acid], the IC50 in experiment [1] and in experiment [2] was less than 0.5 µM each time.

In the case of `O=C(O)Cc1sc(C(Cc2ccccc2)c2ccccc2)nc1-c1ccc(Cl)cc1` (stereo not shown) [Compound A5, [4-(4-Chloro-phenyl)-2-(1,2-diphenyl-ethyl)-thiazol-5-yl]-acetic acid], the values for the IC50 in experiment [1] and in experiment [2] were 0.5 to 5 µM and less than 0.5 µM, respectively.

In experiment [2], `CCC(c1ccccc1)c1nc(-c2ccc(Cl)cc2)c(CC(=O)O)s1` (stereo not shown) [Compound A6, [4-(4-Chloro-phenyl)-2-(1-phenyl-propyl)-thiazol-5-yl]-acetic acid] gave a 50% inhibitory concentration (IC50) of less than 0.5 µM.

As for `O=C(O)Cc1sc(C(Cc2ccccc2)c2ccc(Cl)cc2)nc1-c1ccc(F)cc1` (stereo not shown) [Compound A7, [2-[1-(4-Chloro-phenyl)-2-phenyl-ethyl]-4-(4-fluoro-phenyl)-thiazol-5-yl]-acetic acid], the IC50 in experiment [1] and in experiment [2] was less than 0.5 µM in each case.

In the case of `O=C(O)Cc1sc(C(c2ccccc2)c2ccc(Cl)cc2)nc1-c1ccc(Cl)cc1` (stereo not shown) [Compound A8, {4-(4-Chloro-phenyl)-2-[(4-chloro-phenyl)-phenyl-methyl]-thiazol-5-yl}-acetic acid], the half-inhibitory concentration (IC50) in experiment [1] and in experiment [2] was less than 0.5 µM in each case.

Regarding `O=C(O)Cc1sc(C(Cc2ccccc2)c2ccc(Cl)cc2)nc1-c1ccc(Cl)cc1` (stereo not shown) [Compound A9, {4-(4-Chloro-phenyl)-2-[1-(4-chloro-phenyl)-2-phenyl-ethyl]-thiazol-5-yl}-acetic acid], the values for the IC50 in experiment [1] and in experiment [2] were 0.5 to 5 µM and less than 0.5 µM, respectively.

Consider `O=C(O)Cc1sc(C(c2ccccc2)c2ccc(Cl)cc2)nc1-c1ccc(F)cc1` (stereo not shown) [Compound A10, [2-[(4-Chloro-phenyl)-phenyl-methyl]-4-(4-fluoro-phenyl)-thiazol-5-yl]-acetic acid], for which the concentration for half-maximal inhibition (IC50) in experiment [1] and in experiment [2] was less than 0.5 µM each time.

For `O=C(O)Cc1sc(C(c2ccccc2)c2ccccc2)nc1-c1ccccc1` [Compound A11, (2-Benzhydryl-4-phenyl-thiazol-5-yl)-acetic acid], the IC50 is less than 0.5 µM in experiment [1] and 0.5 to 5 µM in experiment [2].

Take `COc1ccc(-c2nc(C(c3ccccc3)c3ccccc3)sc2CC(=O)O)cc1` [Compound A12, [2-Benzhydryl-4-(4-methoxy-phenyl)-thiazol-5-yl]-acetic acid]: the IC50 was 0.5 to 5 µM in experiment [1] and less than 0.5 µM in experiment [2].

Regarding `O=C(O)Cc1sc(C(c2ccccc2)c2ccc(F)cc2)nc1-c1ccc(Cl)cc1` (stereo not shown) [Compound A13, {4-(4-Chloro-phenyl)-2-[(4-fluoro-phenyl)-phenyl-methyl]-thiazol-5-yl}-acetic acid], the IC50 in experiment [1] and in experiment [2] was less than 0.5 µM throughout.

For `O=C(O)Cc1sc(C(c2ccc(F)cc2)c2ccc(F)cc2)nc1-c1ccc(F)cc1` [Compound A14, [2-[Bis-(4-fluoro-phenyl)-methyl]-4-(4-fluoro-phenyl)-thiazol-5-yl]-acetic acid], the 50% inhibitory concentration (IC50) in experiment [1] and in experiment [2] was less than 0.5 µM each time.

In the case of `COc1ccc(C(c2ccccc2)c2nc(-c3ccc(F)cc3)c(CC(=O)O)s2)cc1` (stereo not shown) [Compound A15, {4-(4-Fluoro-phenyl)-2-[(4-methoxy-phenyl)-phenyl-methyl]-thiazol-5-yl}-acetic acid], the IC50 in experiment [1] and in experiment [2] was less than 0.5 µM in each case.

With `COc1ccc(C(c2ccccc2)c2nc(-c3ccc(Cl)cc3)c(CC(=O)O)s2)cc1` (stereo not shown) [Compound A16, {4-(4-Chloro-phenyl)-2-[(4-methoxy-phenyl)-phenyl-methyl]-thiazol-5-yl}-acetic acid], the IC50 in experiment [1] and in experiment [2] was less than 0.5 µM in each case.

Turning to `O=C(O)Cc1sc(C(c2ccccc2)c2ccc(F)c(F)c2)nc1-c1ccc(Cl)cc1` (stereo not shown) [Compound A17, {4-(4-Chloro-phenyl)-2-[(3,4-difluoro-phenyl)-phenyl-methyl]-thiazol-5-yl}-acetic acid], the concentration for half-maximal inhibition (IC50) is more than 5 µM in experiment [1] and less than 0.5 µM in experiment [2].

For the compound `O=C(O)Cc1sc(C(c2ccccc2)c2ncccc2Cl)nc1-c1ccc(Cl)cc1` (stereo not shown) [Compound A29, {4-(4-Chloro-phenyl)-2-[(3-chloro-pyridin-2-yl)-phenyl-methyl]-thiazol-5-yl}-acetic acid], in experiment [2], the IC50 is less than 0.5 µM.

`COc1ccc(C(c2ccccn2)c2nc(-c3ccc(F)cc3)c(CC(=O)O)s2)cc1` (stereo not shown) [Compound A30, {4-(4-Fluoro-phenyl)-2-[(4-methoxy-phenyl)-pyridin-2-yl-methyl]-thiazol-5-yl}-acetic acid]: in experiment [2], the IC50 is less than 0.5 µM.

In turn, `O=C(O)Cc1sc(C(c2ccccc2)C2CCCCC2)nc1-c1ccc(Cl)cc1` (stereo not shown) [Compound A32, [4-(4-Chloro-phenyl)-2-(cyclohexyl-phenyl-methyl)-thiazol-5-yl]-acetic acid] came in with a half-inhibitory concentration (IC50) in experiment [2] of 0.5 to 5 µM.

For the compound `O=C(O)Cc1sc(Cc2ccccc2Oc2ccccc2)nc1-c1ccc(Cl)cc1` [Compound A35, [4-(4-Chloro-phenyl)-2-(2-phenoxy-benzyl)-thiazol-5-yl]-acetic acid], the IC50 in experiment [2] lay within 0.5 to 5 µM.

Regarding `CC(=O)Nc1cccc(-c2ccccc2Cc2nc(-c3ccc(F)cc3)c(CC(=O)O)s2)c1` [Compound A39, [2-(3′-Acetylamino-biphenyl-2-ylmethyl)-4-(4-fluoro-phenyl)-thiazol-5-yl]-acetic acid], the IC50 in experiment [2] was in the range of 0.5 to 5 µM.

Consider `COc1ccccc1-c1ccccc1Cc1nc(-c2ccc(F)cc2)c(CC(=O)O)s1` [Compound A41, [4-(4-Fluoro-phenyl)-2-(2′-methoxy-biphenyl-2-ylmethyl)-thiazol-5-yl]-acetic acid], for which the half-inhibitory concentration (IC50) in experiment [2] is less than 0.5 µM.

Compound `N#Cc1cccc(-c2ccccc2Cc2nc(-c3ccc(F)cc3)c(CC(=O)O)s2)c1` [Compound A43, [2-(3′-Cyano-biphenyl-2-ylmethyl)-4-(4-fluoro-phenyl)-thiazol-5-yl]-acetic acid] came in with an IC50 in experiment [2] of less than 0.5 µM.

Take `O=C(O)Cc1sc(Cc2ccccc2-c2cccc(OC(F)(F)F)c2)nc1-c1ccc(F)cc1` [Compound A44, [4-(4-Fluoro-phenyl)-2-(3′-trifluoromethoxy-biphenyl-2-ylmethyl)-thiazol-5-yl]-acetic acid]: the IC50 in experiment [2] was less than 0.5 µM.

The term IC50 denotes the concentration that inhibits the measured activity by half.
